# Results: a melting point compilation (Tetko et al.; mined from patent text by program, amines drawn as free bases though some values may be those of a salt)
row,melting point [°C],Compound
1,107 to 108,CCOC(=O)c1csc(-c2ccc3cc4c(cc3c2)C(C)(C)CCC4(C)C)c1
2,161 to 164,CCOC(=O)C(Cl)=Cc1cc(NC(=O)C2=C(C(=O)N(C)C)CCCC2)ccc1Cl
3,105 to 108,CCCc1c(OCCCOc2c(C(C)=O)ccc(OCCCCCC(=O)O)c2CCC)ccc(C(C)=O)c1O
4,153 to 156,Clc1c2ccccc2nc2c1cnn2-c1ccccn1
5,209 to 211,COc1ccc(CSc2nc(NC(CO)CO)c3ncc(=O)[nH]c3n2)cc1Cl
6,70 to 72,CCOC(=O)Cc1nc(-c2ccc(Cl)cc2)oc1Oc1ccc(Cl)cc1
7,154 to 155,Fc1ccc(-c2ncn(C3CCNCC3)c2-c2ccnc(Oc3ccccc3F)n2)cc1
8,196 to 200,C=CCn1cc2cc3ncc(-c4ccc(OC)c(F)c4)nc3cc2n1
9,116 to 117,C#CCN(C)c1nccc(Oc2ccc(NC(=O)c3cc(F)cc(N4CCCCC4)c3)c3ccccc23)n1
10,159 to 160,CSc1ccc(C2=C(c3ccccc3)C(=O)OC2)cc1F
11,98 to 100,CCOC(=O)c1cnc(C)nc1-c1ccc(OC)c(OC)c1
12,127,CCCCn1ccc(-c2ccc(Oc3ccnc(C)c3)cc2F)c(C#N)c1=O
13,138 to 139,Cc1nn(-c2ccccn2)cc1COc1ccc(COc2ncccc2CC#N)cc1
14,172 to 174,COC(=O)c1ccc(COc2ccc3cc(-c4ccc(-c5ccccc5)n4Cc4ccc(C(F)(F)F)cc4)ccc3c2)c(C(=O)OC)c1
15,187,COC(=O)C1(NC(=O)Cc2cc(-c3ccc(F)cc3)ccc2C)CCC(F)(F)CC1
16,68 to 71,CC(C)(C)OC(=O)N1Cc2ccccc2CN1CC(O)C(Cc1ccccc1)NC(=O)OCc1ccccc1 (stereo not given)
17,144 to 146,CC1Nc2ccc(-c3cccc(Cl)c3)cc2C(C)(C)O1 (stereo not given)
18,287,COc1ccc(C(=O)Nc2c(Cl)cncc2Cl)c2c1OCC2CC(=O)NCc1ccc(F)cc1 (stereo not given)
19,> 350,O=c1[nH]c2cc(Cl)ccc2c(O)c1-c1ccc(I)cc1

row,melting point [°C],Compound
1,155 to 156,CC(C)Oc1ccccc1CN1CCC(=O)C(C(c2ccc(F)cc2)c2ccc(F)cc2)C1 (stereo not given)
2,149,Cc1noc(C)c1S(=O)(=O)Nc1cccc(C=C2c3ccccc3CCc3ccccc32)c1
3,165 to 166,OCC12CC(c3ccccc31)c1ccccc12
4,135 to 143,CC(CC(=O)O)NC(=O)OCC1c2ccccc2-c2ccccc21 (stereo not given)
5,252 to 253,COc1cc(C(=O)O)cc2ccc3ccccc3c(=O)c12
6,254 to 255,COc1cc(O)c(C=O)c2cc(-c3ccc(O)cc3)oc12
7,166 to 169,Cc1nc2c(N)nc3ccccc3c2n1CCC(=O)N1CCOCC1
8,234 to 235,CCC(CC)c1ccc(Cl)c2nc3n(c12)CCCCN3c1ncc(C(N)=O)cc1C
9,110 to 111,COc1ccc(N)c(CS(=O)(=O)c2ccccc2)c1
10,171 to 173,COc1ccc(CC(=O)NC2CCN(Cc3ccccc3)CC2)cc1
11,100,COc1ccccc1N1CCN(CCCCCC(=O)N2Cc3ccccc3C2)CC1
12,156 to 158,COc1ccc(-c2ccc3c(c2)CCCC3=O)c2c1OCCO2
13,110,COc1ccc(Cn2c(-c3cc(OC)c(OC)c(OC)c3)nc3ccccc32)cc1
14,151 to 154,Cc1cc(-c2ccc(S(C)(=O)=O)cc2)n(-c2ccc(F)cc2)c1Cl
15,109 to 110,CCCOc1ccccc1C=C(C=O)C(C=O)=Cc1ccccc1OCCC
16,140 to 142,CN(NC(=O)c1ccccc1C(=O)O)c1nc2ccccc2o1
17,148 to 150,CCOC(=O)/C=C/c1ccc(-c2ccc(OCc3ccccc3)c(C34CC5CC(CC(C5)C3)C4)c2)c(Cl)c1
18,130 to 131,CCN1c2ncc(C=Cc3cccc(F)c3)cc2C(=O)N(C)c2ccc(Cl)nc21
19,88 to 89,CCCOc1ccc(S(=O)(=O)N2CCN(CCOC(=O)C(C)C)CC2)cc1-c1nc2c(CCC)cn(CC)c2c(=O)[nH]1

row,melting point [°C],Compound
1,184 to 186,CS(=O)Cc1cccc(-c2nc(=O)c3ccccc3s2)n1 (stereo not given)
2,147 to 152,O=C(Nc1ccc(-n2nc(C(F)(F)F)cc2C2CC2)cc1)c1cccc(F)c1F
3,142 to 143,CC1CC(C)CN(CCNc2ccnc3cc(Cl)ccc23)C1 (stereo not given)
4,88 to 89,CNC(=O)c1cc(-c2c[nH]nc2-c2ccc(F)cc2)ccn1
5,114 to 125,CCCC(=O)NN=C(c1ccc(Cl)cc1)c1ccc(OC(F)F)cc1
6,208 to 211,c1ccc2cc(-c3scc4c3OCCO4)ccc2c1
7,75 to 76,CCN(CC)CCCNC(=O)Cn1ncc(-c2ccc(N)cc2)c1-c1ccccc1
8,96,CC(C)(C)OC(=O)C(Nc1ccccc1)c1cccc(Cl)c1 (racemic)
9,204,CS(=O)(=O)C(=C1CN(C(c2ccccc2)c2ccccc2)C1)c1cc(Cl)cc(Cl)c1
10,140 to 141,O=C1COC2(CCN(CCc3ccccc3)CC2)CN1
11,188 to 190,CSc1ccc(NS(=O)(=O)c2cccc3c(N(C)C)cccc23)nn1
12,158 to 160,COC(=O)C1CCC2C3CCC4CC(OS(=O)(=O)c5ccc(C)cc5)CCC4(C)C3C(=O)CC12C (stereo not given)
13,83 to 84,CCOC(=O)c1ccc(CCN(C)CCCC(C#N)(C(=O)OCC)c2ccc(OC)c(OC)c2)cc1 (stereo not given)
14,124 to 125,O=C1Nc2ccccc2N(CCCCCCN2CCCCC2)c2ccccc21
15,132,CCc1cc(OCc2cccc(C(=O)OC)c2)cc(O)c1C(C)=O
16,206 to 209,Cn1cc(S(C)=O)c(=O)c2scc(-c3ccccc3)c21 (stereo not given)
17,176 to 178,Cc1ccc(-c2ccc(C(CCC(=O)O)=NO)cc2)cc1
18,196 to 197,Cc1c(CC(=O)O)c2cc(OCc3csc(-c4ccc(C(F)(F)F)cc4)n3)ccc2n1Cc1ccc(Cl)cc1
19,138,CN1CCCCC1CCc1ccccc1NC(=O)c1ccc(Br)cc1 (stereo not given)

# More lines, now with the values behind:
row,Compound,melting point [°C]
1,CC(C)(C)c1cc(SCSc2cc(C(C)(C)C)c(O)c(C(C)(C)C)c2)cc(C(C)(C)C)c1O,94 to 95
2,CN1C(C)(C)CC(CO)CC1(C)C,84 to 85
3,FC(F)(F)c1ccc(-c2cc(C(F)(F)F)n3nccc3n2)cc1,110 to 111
4,Cc1cccn2ccnc12,150 to 152
5,CC(C)(C)OC(=O)N1CCC(Nc2ccc3nc(NC(=O)c4ccc(C(C)(C)C)cc4)cn3n2)C1 (stereo not given),264 to 265
6,CCCCOC(=O)N=C(NC(=O)c1ccccc1)SC,99 to 101
7,C#CC1(O)CCC2(C)C(CCC3C4CCC(C(C)=O)C4(C)C=CC32)C1 (stereo not given),147 to 150
8,Cc1c2n(c3ccccc13)CCC2O (stereo not given),118 to 120
9,COCc1cnn(-c2c(Cl)cc(C(F)(F)F)cc2Cl)n1,32 to 33
10,COC(=O)C(C(C)=O)=C(N)C(F)(F)F,63 to 65
11,OC1CCc2ccc(Cl)cc2C1 (stereo not given),79 to 81
12,Cc1cc(-c2nncc3c(C(C)(C)C)c(OCc4ncnn4C)nn23)no1,171 to 174
13,CC(C)c1ccccc1N=C1N=CC(C)(C)CS1,155 to 157
14,COc1cccc2c(=O)n3c(cc12)SCCC3,117 to 118
15,CN1C[C@H](CCN2CCN(C(c3ccccc3)c3ccccc3)CC2)C=C2c3cccc4[nH]cc(c34)C[C@H]21,165 to 169
16,Clc1cccc2c1CSCCCN2,71 to 73
17,N#CNC(=N)NCCCN1CCC(c2noc3cc(F)ccc23)CC1,178 to 181
18,COC(=O)c1ccc(S(C)(=O)=O)c(C(=O)NCC(C)CO)c1Cl (stereo not given),70 to 72
19,CNC(=S)NCCCSc1ncco1,43 to 45
20,N=C(N)NCCC[C@H](NC(=O)c1ccccc1SSc1ccccc1C(=O)N[C@@H](CCCNC(=N)N)C(=O)O)C(=O)O,208 to 211
21,O=C(O)CCCCSc1nc2c(F)c(F)cc(F)c2s1,56 to 58
22,CCCCCCCCCCCCCCCC(=O)OCCCCN,59 to 61

row,Compound,melting point [°C]
1,CN(C)c1ccc2cc(Cl)cnc2c1C#N,174
2,CC1(C)CC(OC(=O)CCCCCCCCC(=O)OC2CC(C)(C)PC(C)(C)C2)CC(C)(C)P1 (stereo not given),58 to 63
3,COC(=O)c1nc(Cc2ccccc2)n2c1CN=C(c1ccccc1Cl)c1cc(Cl)ccc1-2,155 to 158
4,CC(C)N(CCC(CCN(C(C)C)C(C)C)(C(N)=O)c1ccc(Cl)cc1)C(C)C,113 to 115
5,CCC(C)(C)c1c[nH]cn1,95 to 96
6,O=C(N[C@H]1CC[C@H](CCN2CCN(c3nccc4c3OCC4)CC2)CC1)c1ccc2c(c1)OCO2,214
7,O=[N+]([O-])c1cccnc1Nc1ccncc1,165 to 167
8,COC(=O)c1cc2c([nH]c1=O)CCCCCC2,220 to 224
9,COC(=O)/C=C/C1=C(C)C2(CCC1(C)C)SCCS2,79.5 to 88.1
10,O=C(CCl)N1CCC(c2noc3cc(F)ccc23)CC1,101 to 102
11,CC(C)(C#N)c1cc(C=O)cc(C(C)(C)C#N)c1,145 to 147
12,O=S(=O)(Nc1ccc(I)cc1)N1CCOCC1,91
13,COc1nc(C)nc(NC(=O)NS(=O)(=O)c2c(C3=NOCCO3)csc2C)n1,200
14,COc1cc(OC)nc(Oc2cccc(NC(=O)C(C)(C)C)c2C(=O)O)n1,192 to 195
15,c1ccc(C2(n3ccnc3)c3ccccc3C(c3ccccc3)(n3ccnc3)c3ccccc32)cc1 (stereo not given),258 to 260
16,CC(=O)CC(=O)OC(C)N=C(O)c1cc(C(=N)O)c(C(=O)O)cc1C(=O)O (stereo not given),161 to 163
17,CCC(=O)c1cc(SC)cc(CNC(=O)CCl)c1O,202 to 204
18,CC(C)(C)c1nnc(N=C2SC[C@@H]3Cc4ccccc4CN23)s1,137
19,COc1cccc2c(C)c3n(c(=O)c12)CCCS3(=O)=O,198 to 199
20,COc1cc2c(cc1SC)CCN(C(C)=O)CC2,138 to 140
21,CC#CCOc1ccc(S(=O)[C@@H](C(=O)NO)c2ccc(OC)cc2)cc1 (stereo not given in full),134
